Measured values taken from ChEMBL document CHEMBL1130168, “Synthesis and evaluation of novel rhodacyanine dyes that exhibit antitumor activity” (J Med Chem, 1997).

Assays:
CX-1 = assay: Inhibitory concentration against growth of human colon carcinoma cells; type: functional, cell-based
CV-1 = assay: Inhibitory concentration against growth of monkey normal kidney epithelial cells as a measure of compound toxicity; type: functional, cell-based, Cercopithecidae; conditions: Chlorocebus aethiops
[1] = Selectivity ratio is IC50 of Human colon carcinoma cells to that of Monkey normal kidney epithelial cells; type: functional, Epithelial cell
MCF7 = assay: Inhibitory concentration of compound against growth of human breast carcinoma cells; type: functional, cell-based
Mus musculus [2] = assay: 5 mg/kg of compound was administered IP on days 1,3,7,10,16 to OVCARIII tumor bearing nude mice and the ratio of median survival time of treated to control was reported
Mus musculus [3] = assay: 5 mg/kg of compound was administered IP on days 1,5,8,12 to LOX tumor bearing nude mice and the ratio of median survival time of treated to control was reported; type: functional
Bladder carcinoma cell = assay: Inhibitory concentration of compound against growth of human bladder carcinoma cells; type: functional, cell-based
LOX IMVI [4] = assay: Inhibitory concentration of compound against growth of human melanoma cells; type: functional, cell-based
Mus musculus [5] = assay: 5 mg/kg of compound was administered IP on days 1,5,7 to CX-1 tumor bearing nude mice and the inhibition ratio was reported; type: functional
MIA PaCa-2 = assay: Inhibitory concentration of compound against growth of human pancreatic carcinoma cells; type: functional, cell-based
Mus musculus [6] = assay: 1.5 mg/kg of compound was administered IP on days 1,3,4,7,9 to LOX tumor bearing nude mice and the ratio of median survival time of treated to control was reported; type: functional
Mus musculus [7] = assay: 5 mg/kg of compound was administered IP on days 1,3,7,10,16 to […] tumor bearing nude mice and the ratio of median survival time of treated to control was reported; type: functional; conditions: at 5 mg/kg
Mus musculus [8] = assay: 5 mg/kg of compound was administered IP on days 1,5,8,12,15 to LOX tumor bearing nude mice and the ratio of median survival time of treated to control was reported; type: functional; conditions: at 5 mg/kg
Mus musculus [9] = assay: 2 mg/kg of compound was administered IP on days 1,2,4,5,7,8,10 to LOX tumor bearing nude mice and the ratio of median survival time of treated to control was reported; type: functional; conditions: at 2 mg/kg
Mus musculus [10] = assay: 4 mg/kg of compound was administered IP on days 1,2,4,5,7,8,10 to LOX tumor bearing nude mice and the ratio of median survival time of treated to control was reported; type: functional; conditions: at 4 mg/kg
LOX IMVI [11] = assay: Inhibitory concentration of compound against growth of human melanoma cell cells; type: functional, cell-based
[12] = Homo sapiens, Bladder carcinoma cell

Row | Compound | IC50 (CX-1) [nM] | IC50 (CV-1) [nM] | Ratio [1] | also measured
1 | CCN1/C(=C/C=C(Cl)/C=C/c2sc3ccc4ccccc4c3[n+]2CC)Sc2ccc3ccccc3c21.Cc1ccc(S(=O)(=O)[O-])cc1 | 60 | 100 | 2 | –
2 | CC[n+]1c(/C=c2\s/c(=C3/Sc4ccccc4N3C)c(=O)n2-c2ccccc2)sc2ccccc21.Cc1ccc(S(=O)(=O)[O-])cc1 | 10 | 2200 | 220 | IC50 (MCF7; Homo sapiens, MCF7): 60 nM; T/C (Mus musculus [2]): >300%; T/C (Mus musculus [3]): 183%; IC50 (Bladder carcinoma cell; [12]): 40 nM; IC50 (LOX IMVI [4]): 40 nM; TI (Mus musculus [5]): 42%; IC50 (MIA PaCa-2; Homo sapiens, MIA PaCa-2): 40 nM
3 | CCN1/C(=C/C=c2\s/c(=C\c3sc4ccccc4[n+]3CC)n(-c3ccccc3)c2=O)Sc2ccccc21.[I-] | 60 | 3000 | 50 | IC50 (MCF7; Homo sapiens, MCF7): 40 nM; IC50 (Bladder carcinoma cell; [12]): 400 nM; T/C (Mus musculus [6]): 256%; IC50 (LOX IMVI [4]): 40 nM; IC50 (MIA PaCa-2; Homo sapiens, MIA PaCa-2): 70 nM
4 | CCn1c(=O)/c(=C2\Sc3ccccc3N2C)s/c1=C\c1sc2ccccc2[n+]1CC.[I-] | 50 | 17300 | 346 | IC50 (MCF7; mcf7): 90 nM; IC50 (Bladder carcinoma cell; bladder carcinoma cell): 70 nM; T/C (Mus musculus [7]): 180%; T/C (Mus musculus [8]): 168%; IC50 (LOX IMVI [4]): 20 nM; IC50 (MIA PaCa-2; mia paca-2): 50 nM
5 | CCn1c(=O)c(=C2CCCCC2)s/c1=C\c1sc2ccccc2[n+]1CC.Cc1ccc(S(=O)(=O)[O-])cc1 | 1800 | 16200 | 9 | –
6 | CCn1c(=O)/c(=C2\Sc3ccccc3N2C)n(CC)/c1=C\c1sc2ccccc2[n+]1CC.[I-] | 1300 | 25400 | 20 | –
7 | CC(=O)[O-].CCn1c(=O)/c(=C2\Sc3ccccc3N2C)s/c1=C\c1sc2ccccc2[n+]1CC | – | – | – | T/C (Mus musculus [9]): 156%; IC50 (MCF7; mcf7): 400 nM; T/C (Mus musculus [10]): 163%; IC50 (Bladder carcinoma cell; [12]): 60 nM; IC50 (LOX IMVI [11]): 10 nM; IC50 (MIA PaCa-2; Homo sapiens, MIA PaCa-2): 60 nM
8 | CCN1/C(=C/C=c2\s/c(=C\c3sc4ccc5ccccc5c4[n+]3CC)n(CC)c2=O)Sc2ccc3ccccc3c21.Cc1ccc(S(=O)(=O)[O-])cc1 | 30 | 6500 | 217 | –
9 | CCN1/C(=C/C=c2/c(=O)n(CC)/c(=C/c3sc4c5ccccc5ccc4[n+]3CC)n2CC)Sc2ccc3ccccc3c21.[I-] | 100 | 800 | 8 | –
10 | CC[n+]1c(/C=c2\s/c(=C\Nc3ccccc3)c(=O)n2-c2ccccc2)sc2ccccc21.[Br-] | 1500 | 1500 | 1 | –
11 | CCN1/C(=C/C=c2\s/c(=C\c3sc4ccccc4[n+]3CC)sc2=O)Oc2ccccc21.[I-] | > 1700 | 3400 | <2 | –
12 | CCN1C(=O)CS/C1=C\c1sc2ccccc2[n+]1CC.[Br-] | 1300 | 38900 | 30 | –
13 | CC[n+]1c(/C=C2\SCC(=O)N2c2ccccc2)sc2ccccc21.[Br-] | 2300 | 46100 | 20 | –
14 | CCN1/C(=C/C=c2/c(=O)s/c(=C/c3sc4ccccc4[n+]3CC)n2C)Oc2ccccc21.[I-] | 70 | 3400 | 49 | –
15 | CCN1/C(=C/C=c2\s/c(=C\c3sc4ccccc4[n+]3CC)n(C)c2=O)Oc2ccccc21.[I-] | 30 | 1700 | 57 | –
16 | CC[n+]1c(/C=c2\s/c(=C\C=C\Nc3ccccc3)c(=O)n2-c2ccccc2)sc2ccccc21.[I-] | 800 | 9800 | 12 | –
17 | CCN1/C(=C/C=C/c2sc3ccccc3[n+]2CC)Sc2ccccc21.[I-] | 60 | 1200 | 20 | –
